Results published in patent EP0968998A1, “Cosmetic compositions, ceramide analogues with anti-elastase activity and process for their preparation” (ELF ATOCHEM S.A., priority 1998, dated 2000).

Biological target: T1, élastase de leucocytes humains (Homo sapiens, UniProt P08246)
T1 construct: purchased Elastin Products Co. SE 563; host or cells: human leukocytes, as the enzyme's name says
T1 sequence (P08246 30-267): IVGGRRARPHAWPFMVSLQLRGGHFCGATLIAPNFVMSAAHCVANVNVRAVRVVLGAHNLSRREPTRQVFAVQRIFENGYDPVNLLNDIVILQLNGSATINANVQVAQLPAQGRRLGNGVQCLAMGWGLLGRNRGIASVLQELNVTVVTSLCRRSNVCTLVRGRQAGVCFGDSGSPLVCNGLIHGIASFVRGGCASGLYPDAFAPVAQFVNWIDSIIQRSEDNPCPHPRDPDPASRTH
Assay: Anti-elastase activity: release of p-nitroaniline from N-succinyl-(Ala)3-p-nitroanilide, spectrophotometry at 410 nm
Format: biochemical
Details: pH 8, 37°C, pH8, 5 min preincubation, substrate 250 µM, read-out: % I (%)
Text: Les exemples qui suivent permettent d'illustrer l'invention. Dans ces exemples, on utilise les méthodes d'analyse suivantes : - Spectrographie infrarouge (IR) Les spectres sont réalisés au moyen d'un appareil PERKIN ELMER 1760 IRTF, en dispersion dans KBr à 1 %. Les valeurs sont exprimées en nombre d'onde par centimètre. - Résonance magnétique nucléaire (RMN) Les spectres sont réalisés au moyen d'un appareil BRUCKER DRX 500, à 500 MHz (^1H) et 125 MHz (^13C) dans le DMSO-d6. La calibration de l'appareil est effectuée au moyen de DMSO. Les déplacements chimiques sont exprimés en ppm. L'aspect des signaux est noté : singulet (s), doublet (d), triplet (t), quadruplet (q), multiplet (m), quintuplet (*5) et couplage AB (AB). - Mesure de l'activité anti-élastase L'activité anti-élastase est mesurée selon la méthode qui consiste à faire réagir l'élastase de leucocytes humains (référence SE 563; Elastin Products Co.; Owensville, MO, USA) avec le N-succinyl-(Ala)3-p-nitroanilide (réf. S4760; Sigma) et mesurer la libération de p-nitroaniline. On utilise le N-succinyl-(Ala)3-p-nitroanilide en solution dans le tétrahydrofurane et une solution d'élastase à 100 mg/ml dans un mélange de glycérol et de tampon acétate de sodium (50/50; v/v), pH5. L'activité de l'enzyme est mesurée à 37°C dans 100 mM de tampon Tris-HCI, pH8 contenant 0,01 % de Triton X-100 (volume/volume) et 0,02 % d'azide de sodium (poids/volume). Le céramide à tester, solubilisé dans le tétrahydrofurane (concentration en THF = 0,5 % en volume) est préincubé en présence de l'enzyme (0,05 mg/ml) dans le tampon pendant 5 minutes à 37°C. On ajoute le N-succinyl-(Ala)3-p-nitroanilide (concentration finale : 250 µM) et on mesure la libération de la p-nitroaniline dans une cuve en quartz par spectrophotométrie à 410 nm. La capacité inhibitrice du céramide est exprimée en pourcentage d'inhibition (% I) selon la relation : %I = (1 -(Vi)/(Vo))×100 [formula] dans laquelle Vi et Vo sont les vitesses d'apparition de la p-nitroaniline en présence et en absence d'inhibiteur respectivement. - Mesure de l'amélioration de la barrière cutanée a) mesure de la Perte Insensible en Eau (PIE) La mesure de la PIE permet de quantifier la très faible quantité d'eau qui diffuse passivement à travers le stratum corneum. Ce paramètre représente un très bon index de la fonction barrière du stratum corneum. Cette méthode est surtout utilisée pour contrôler l'efficacité de formules cosmétiques qui, contenant certains types de lipides sont capables de diminuer la PIE et, en conséquence, d'empêcher la déshydratation du stratum corneum. La sonde est laissée en contact de la peau pendant 2 minutes environ de façon à atteindre une position d'équilibre. PIE = D'(dP)/(dx)(gradient de pression de vapeur) [formula] Les valeurs sont exprimées en g/m^2/heure et permettent de calculer un delta de PIE = PIE (peau traitée) - PIE (peau témoin). L'appareil utilisé est un Evaporimètre EPI de Servomed. Les mesures sont effectuées sur deux groupes de 15 volontaires sains ayant une peau sèche, avant l'application du produit (t=0) et après l'application (t=0,5 heure, 1 heure, 3 heures et 6 heures) sur la face interne des deux avant-bras. L'analogue de céramide selon l'invention ou le céramide témoin est incorporé dans une crème ayant la composition suivante (en % en poids) : […]

inhibition at 250 µM (Concentration 250 µM): 67%
inhibition at 500 µM (Concentration 500 µM): 86%
SMILES: CCCCCCCCCCCCCCCCCC(=O)NC(CC)(CO)COC(=O)CCCCCCCCCCCCCCCCC (centres unmarked) [Exemple 4, 1-stéaroyl-2-éthyl-2-stéaroylamino-1,3-propanediol]
